This experiment deals with RaaS (Rv1219c) (Mycobacterium tuberculosis, UniProt O86312). The experiment in a line: biochemical.

Each structure is given as a SMILES string.

The values that follow come from article PMC4155686, “Oleoyl Coenzyme A Regulates Interaction of Transcriptional Regulator RaaS (Rv1219c) with DNA in Mycobacteria*” (The Journal of Biological Chemistry, 2014).

In general, Kd refers to the free concentration of one partner at which half of the binding sites on the other are occupied at equilibrium, for simple one-to-one binding.

RaaS (Rv1219c), sequence (O86312 whole entry): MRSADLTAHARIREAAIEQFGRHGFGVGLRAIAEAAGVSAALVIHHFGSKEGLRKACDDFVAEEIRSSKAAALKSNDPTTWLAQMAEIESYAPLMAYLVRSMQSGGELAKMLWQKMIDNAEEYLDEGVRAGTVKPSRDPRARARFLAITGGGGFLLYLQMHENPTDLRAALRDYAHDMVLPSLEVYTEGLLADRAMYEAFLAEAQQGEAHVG

Consider `CCCCCCCC/C=C\CCCCCCCC(=O)SCCNC(=O)CCNC(=O)[C@H](O)C(C)(C)COP(=O)(O)OP(=O)(O)OC[C@H]1O[C@@H](n2cnc3c(N)ncnc32)[C@H](O)[C@@H]1OP(=O)(O)O` [oleoyl-CoA], for which the affinity, expressed as Kd, was 3.65 ± 0.28 µM.
